System: islets
Test: Toxicity to islets
Assay type: cell-based, mouse
Conditions: 3 μM

SMILES: CSCC[C@@H]1NC(=O)[C@@](C)(NC(=O)[C@H](CCCNC(=N)N)NC(=O)[C@H](CC(C)C)NC(=O)[C@H](CCC(=O)O)NC(=O)[C@H](CCCNC(=N)N)NC(=O)CNC(=O)[C@H](Cc2ccc(O)cc2)NC(=O)[C@H](CCCNC(=N)N)NC(=O)[C@H](CCC(N)=O)NC(=O)[C@H](C)NC(=O)[C@H](C)NC(=O)[C@H](Cc2c[nH]c3ccccc23)NC(=O)[C@H](CC(C)C)NC(=O)[C@@H](N)CC(N)=O)CCCC=CCCC[C@@](C)(C(=O)N[C@@H](Cc2ccccc2)C(=O)N[C@H](C(=O)N[C@@H](CC(=O)O)C(=O)N[C@@H](CO)C(=O)N[C@@H](Cc2ccccc2)C(=O)N[C@@H](CCCCN)C(=O)N[C@@H](CCCCN)C(=O)O)C(C)C)NC(=O)[C@H](CC(=O)O)NC(=O)[C@H](CO)NC1=O [BAD SAHBA]
- toxicity to islets: not toxic to islets

From patent US10716828B2, “Methods of modulating cellular homeostatic pathways and cellular survival” (Dana-Farber Cancer Institute, Inc., priority 2007, dated 2020)
